Reference: US11230717B2, “Plants having increased tolerance to herbicides” (BASF SE, priority 2013, dated 2022)

Tests used:
[1] = system: transgenic Arabidopsis plants; assay: Greenhouse testing of transgenic Arabidopsis plants (T2), herbicide spray test; format: in vivo, Arabidopsis thaliana; conditions: for Injury evaluation, scale 0-100%: Arabidopsis
Experimental: Transgenic plants expressing heterologous HPPD or HST enzymes are tested for tolerance against HPPD-inhibiting herbicides in greenhouse experiments.
For post emergence treatment, the test plants are first grown to a height of 3 to 15 cm, depending on the plant habit, and only then treated with the herbicides. For this purpose, the test plants are either sown directly and grown in the same containers, or they are first grown separately and transplanted into the test containers a few days prior to treatment. For testing of T0 plants, cuttings can be used. In the case of soybean plants, an optimal shoot for cutting is about 7.5 to 10 cm tall, with at least two nodes present. Each cutting is taken from the original transformant (mother plant) and dipped into rooting hormone powder (indole-3-butyric acid, IBA). The cutting is then placed in oasis wedges inside a bio-dome. Wild type cuttings are also taken simultaneously to serve as controls. The cuttings are kept in the bio-dome for 5-7 days and then transplanted to pots and then acclimated in the growth chamber for two more days. Subsequently, the cuttings are transferred to the greenhouse, acclimated for approximately 4 days, and then subjected to spray tests as indicated.
Additionally, T1 and T2 transgenic Arabidopsis plants can be tested for improved tolerance to HPPD-inhibiting herbicides in a greenhouse studies. Herbicide injury scoring is done 2-3 weeks after treatment and is rated on a scale of 0 to 100%, 0% being no injury and 100% being complete death.

[2] = target: T1, Hordeum HPPD (SEQ ID NO:2) (Hordeum vulgare, UniProt O48604, A164G/R146V/R147D/R148G); assay: HPPD activity assay, in vitro characterization; format: biochemical
T1 construct: subcloned into a modified pET24D (Novagen) expression vector resulting in N-terminally His-tagged expression constructs; His (N); made in house; host or cells: E. coli BL21 (DE3)
T1 sequence (O48604 whole entry R146V/R147D/R148G/A164G): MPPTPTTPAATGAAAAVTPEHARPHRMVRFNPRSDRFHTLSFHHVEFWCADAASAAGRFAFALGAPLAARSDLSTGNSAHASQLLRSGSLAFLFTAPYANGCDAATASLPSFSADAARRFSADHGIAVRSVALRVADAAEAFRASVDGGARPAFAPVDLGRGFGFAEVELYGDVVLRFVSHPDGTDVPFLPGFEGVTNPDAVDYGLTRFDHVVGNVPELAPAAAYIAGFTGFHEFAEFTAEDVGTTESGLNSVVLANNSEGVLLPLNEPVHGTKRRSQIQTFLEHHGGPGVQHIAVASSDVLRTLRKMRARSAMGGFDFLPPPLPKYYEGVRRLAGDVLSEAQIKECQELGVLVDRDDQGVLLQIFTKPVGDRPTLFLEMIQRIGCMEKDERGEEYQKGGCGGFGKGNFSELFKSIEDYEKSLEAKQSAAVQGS
Experimental: (§1) HPPD produces homogentisic acid and CO2 from 4-hydroxyphenylpyruvate (4-HPP) and O2. The activity assay for HPPD is based on the analysis of homogentisic acid by reversed phase HPLC.
(§2) The assay mixture can contain 150 mM potassium phosphate buffer pH 7.0, 50 mM L-ascorbic acid, 100 μM Catalase (Sigma-Aldrich), 1 μM FeSO4 and 0.2 units of purified HPPD enzyme in a total volume of 505 μl. 1 unit is defined as the amount of enzyme that is required to produce 1 nmol of HGA per minute at 20° C.
(§3) After a preincubation of 30 min the reaction is started by adding 4-HPP to a final concentration of 0.05 mM. The reaction is allowed to proceed for 45 min at room temperature. The reaction is stopped by the addition of 50 μl of 4.5 M phosphoric acid. The sample is filtered using a […] pore size PVDF filtration device.
(§4) 5 μl of the cleared sample is analyzed on an UPLC HSS T3 column (particle size 1.8 μm, dimensions 2,1×50 mm; Waters) by isocratic elution using 90% 20 mM NaH2PO4 pH 2.2, 10% methanol (v/v).
(§5) HGA is detected electrochemically at 750 mV (mode: DC; polarity: positive) and quantified by integrating peak areas (Empower software; Waters).
(§6) Inhibitors are dissolved in DMSO (dimethylsulfoxide) to a concentration of 0.5 mM. From this stock solution serial five-fold dilutions are prepared in DMSO, which are used in the assay. The respective inhibitor solution accounts for 1% of the assay volume. […] Activities are normalized by setting the uninhibited enzyme activity to 100%. IC50 values are calculated using non-linear regression.
(§7) Using methods which are described in the above examples or well known in the art, purified, recombinant wildtype HPPD enzymes are characterized with respect to their kinetic properties and sensitivity towards HPPD inhibiting herbicides. Apparent michaelis constants (Km) and maximal reaction velocities (Vmax) are calculated by non-linear regression with the software GraphPad Prism 5 (GraphPad Software, La Jolla, USA) using a substrate inhibition model. […] Weighted means (by standard error) of Km and IC50 values are calculated from at least three independent experiments. […] To assess the potential performance of a herbicide tolerance trait a tolerance index (TI) is calculated using the following formula: […]

Arabidopsis HPPD = target: T2, Arabidopsis HPPD (Arabidopsis thaliana, UniProt P93836); assay: HPPD activity assay (homogentisic acid by HPLC), in vitro characterization; format: biochemical
T2 construct: His6 (N); made in house; host or cells: E. coli BL21 (DE3)
T2 sequence (P93836 1-445): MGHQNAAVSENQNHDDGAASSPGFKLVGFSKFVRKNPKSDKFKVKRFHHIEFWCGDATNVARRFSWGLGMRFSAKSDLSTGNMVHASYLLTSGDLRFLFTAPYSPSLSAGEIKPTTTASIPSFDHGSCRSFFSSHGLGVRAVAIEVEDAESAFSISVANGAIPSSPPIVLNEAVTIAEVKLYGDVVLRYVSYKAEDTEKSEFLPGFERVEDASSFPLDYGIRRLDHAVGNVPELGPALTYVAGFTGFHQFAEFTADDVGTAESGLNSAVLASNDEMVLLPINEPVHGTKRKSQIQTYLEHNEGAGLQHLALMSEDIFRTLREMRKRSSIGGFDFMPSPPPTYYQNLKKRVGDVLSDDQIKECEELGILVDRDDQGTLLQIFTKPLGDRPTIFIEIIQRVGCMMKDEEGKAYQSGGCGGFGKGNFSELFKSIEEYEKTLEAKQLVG
Experimental: as §1, §2, §3, §4, §5, §6, §7

## CSc1c(Cl)cc(F)c(C(=O)Nc2nnnn2C)c1Cl [Inhibitor 2, 2,4-dichloro-6-fluoro-3-methylsulfanyl-N-(1-methyltetrazol-5-yl)benzamide]
[1]; Arabidopsis HvL320H, P321A, highest rate active ingredient applied
  tolerance factor: outstanding tolerance factor
[1]; Arabidopsis expressing Rhodococcus HPPD (SEQ ID NO:46), highest concentration
  tolerance compared to untransformed wild-type control: 2 fold
[1]; transgene AtF381I, 3.125 g/ha, two weeks
  Injury evaluation, scale 0-100%: 20%
[1]; transgene AtF381I, 6.25 g/ha, two weeks
  Injury evaluation, scale 0-100%: 25%
[1]; transgene AtF381I, 12.5 g/ha, two weeks
  Injury evaluation, scale 0-100%: 40%
[1]; transgene AtM335H, P336A, E363Q, 1.56 g/ha, two weeks
  Injury evaluation, scale 0-100%: 0%
[1]; transgene AtM335H, P336A, E363Q, 3.125 g/ha, two weeks
  Injury evaluation, scale 0-100%: 7%
[1]; transgene AtM335H, P336A, E363Q, 6.25 g/ha, two weeks
  Injury evaluation, scale 0-100%: 7%
[1]; transgene AtM335H, P336A, E363Q, 12.5 g/ha, two weeks
  Injury evaluation, scale 0-100%: 47%
[1]; transgene HvL320H, P321A, 1.56 g/ha, two weeks
  Injury evaluation, scale 0-100%: 0%
[1]; transgene HvL320H, P321A, 3.125 g/ha, two weeks
  Injury evaluation, scale 0-100%: 5%
[1]; transgene HvL320H, P321A, 6.25 g/ha, two weeks
  Injury evaluation, scale 0-100%: 7%
[1]; transgene HvL320H, P321A, 12.5 g/ha, two weeks
  Injury evaluation, scale 0-100%: 8%
[1]; transgene HvL320H, 1.56 g/ha, two weeks
  Injury evaluation, scale 0-100%: 0%
[1]; transgene HvL320H, 3.125 g/ha, two weeks
  Injury evaluation, scale 0-100%: 12%
[1]; transgene HvL320H, 6.25 g/ha, two weeks
  Injury evaluation, scale 0-100%: 18%
[1]; transgene HvL320H, 12.5 g/ha, two weeks
  Injury evaluation, scale 0-100%: 33%
[1]; transgene None, 1.56 g/ha, two weeks after treatment
  Injury evaluation, scale 0-100%: 86%
[1]; transgene None, 3.125 g/ha, two weeks after treatment
  Injury evaluation, scale 0-100%: 87%
[1]; transgene None, 6.25 g/ha, two weeks after treatment
  Injury evaluation, scale 0-100%: 98%
[1]; transgene None, 12.5 g/ha, two weeks after treatment
  Injury evaluation, scale 0-100%: 94%
[1]; transgene RjHPPD, 1.56 g/ha, two weeks
  Injury evaluation, scale 0-100%: 2%
[1]; transgene RjHPPD, 3.125 g/ha, two weeks
  Injury evaluation, scale 0-100%: 12%
[1]; transgene RjHPPD, 6.25 g/ha, two weeks
  Injury evaluation, scale 0-100%: 13%
[1]; transgene RjHPPD, 12.5 g/ha, two weeks
  Injury evaluation, scale 0-100%: 46%
[2]
  Ki: 11 nM
Arabidopsis HPPD
  Ki: 20 nM

## O=C(O)C(=O)Cc1ccc(O)cc1 [Inhibitor 4-HPP, 4-hydroxyphenylpyruvate, reference compound]
[2]; Hordeum HPPD, apparent michaelis constant, read-out: Km (4-HPP)
  Km: 26 µM
[2]; Hordeum HPPD, turnover number, substrate 4-HPP
  kcat: 11.5 s⁻¹
Arabidopsis HPPD; Arabidopsis HPPD, apparent michaelis constant, read-out: Km (4-HPP)
  Km: 13 µM
Arabidopsis HPPD; Arabidopsis HPPD, turnover number, substrate 4-HPP
  kcat: 12.9 s⁻¹
